Laboratory results as given in PMC9154192 (PLoS Biology, 2022).
≈ marks a conversion by molar mass, not a printed value. Where “and” joins values, the source holds several entries; their conditions need not be identical. Equal entries are not always repeated. Where two headings read alike, the source gives them in different places.

Columns and labels:
M. tuberculosis H37Ra = experiment: microbe, parasite or virus in culture; assay type: cell-based, Mycobacterium tuberculosis; settings: Mycobacterium tuberculosis, H37RA
M. tuberculosis H37Rv [1] = assay type: cell-based, Mycobacterium tuberculosis; settings: for RFU/200 μl (replicates1-3), single values / RFU/ml (×104) / RFU/200 μl (average): Fig 2A
XDR M. tuberculosis = assay type: cell-based, Mycobacterium tuberculosis
M. tuberculosis H37Rv [2] = experiment: Luminescence-based microbial cell viability assay; design: species or system Mycobacterium tuberculosis; settings: for RLU/50ul (replicates1-3), single values / RLU/ml (×100) / RLU/50ul (average): Fig 2C
M. tuberculosis H37Rv [3] = assay type: cell-based, Mycobacterium tuberculosis; settings: for CFU/ml (average) / CFU/ml, single values / Intracellular M. tuberculosis, % (Drug Free = 100.0): Fig 3B, H37Rv
M. tuberculosis H37Rv [4] = assay type: in vivo, BALB/c mice; design: Efficacy in BALB/C mouse model of pulmonary tuberculosis, Average / Efficacy in BALB/C mouse model of pulmonary tuberculosis, values of mice 1-6: unit not given here
in vitro = assay type: cell-based; settings: human
Procedure, shortened: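 Cytotoxicity was assessed by MTT assay together with a WST-1 cell viability assay, both run according to previously described procedures.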

intestinal microbiome = experiment: Gut microbiome, 16s rRNA gene-based metagenomics analysis of feces; assay type: in vivo, BALB/c mice; settings: 30 mg/kg oral once a day for 7 days, BALB/c mice, feces
Procedure, shortened: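 Female BALB/c mice, six weeks old (n=6/group), received drug orally at 30 mg/kg once daily for 7 days in corn oil; vehicle controls received corn oil alone. Fecal DNA V4 16S rRNA gene amplicons were sequenced 300-bp paired-end and analyzed on EzBioCloud.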

M. abscessus = experiment: microbe, parasite or virus in culture; assay type: cell-based, Mycobacterium abscessus; settings: Mycobacteroides abscessus
M. arupense = experiment: microbe, parasite or virus in culture; assay type: cell-based, Mycobacterium arupense; settings: Mycolicibacter arupensis
M. aubagnense = experiment: microbe, parasite or virus in culture; assay type: cell-based, Mycobacterium aubagnense; settings: Mycolicibacterium aubagnense
M. colombiense = experiment: microbe, parasite or virus in culture; assay type: cell-based; settings: Mycobacterium colombiense
M. conceptionense = experiment: microbe, parasite or virus in culture; assay type: cell-based, Mycobacterium conceptionense; settings: Mycolicibacterium senegalense
M. gilvum = experiment: microbe, parasite or virus in culture; assay type: cell-based, Mycobacterium gilvum; settings: Mycolicibacterium gilvum
M. intracellulare = experiment: microbe, parasite or virus in culture; assay type: cell-based; settings: Mycobacterium intracellulare
M. kyorinense = experiment: microbe, parasite or virus in culture; assay type: cell-based; settings: Mycobacterium kyorinense
M. marinum = experiment: microbe, parasite or virus in culture; assay type: cell-based; settings: Mycobacterium marinum
M. marseiliense = experiment: microbe, parasite or virus in culture; assay type: cell-based; settings: Mycobacterium
M. neoaurum = experiment: microbe, parasite or virus in culture; assay type: cell-based, Mycobacterium neoaurum; settings: Mycolicibacterium neoaurum
M. peregrinum = experiment: microbe, parasite or virus in culture; assay type: cell-based, Mycobacterium peregrinum; settings: Mycolicibacterium peregrinum
M. phlei = experiment: microbe, parasite or virus in culture; assay type: cell-based, Mycobacterium phlei; settings: Mycolicibacterium phlei
M. smegmatis = experiment: microbe, parasite or virus in culture; assay type: cell-based, Mycobacterium smegmatis; settings: Mycolicibacterium smegmatis
M. szulgai = experiment: microbe, parasite or virus in culture; assay type: cell-based; settings: Mycobacterium szulgai
M. xenopi = experiment: microbe, parasite or virus in culture; assay type: cell-based; settings: Mycobacterium xenopi
[5] = drug conc. 0.39, average of each replicate set
[6] = drug conc. 0.78, average of each replicate set
[7] = drug conc. 1.56, average of each replicate set

## CCCCOc1ccc2cc(CN3C(=O)CC[C@H]3C(=O)OC)c3cc(OC)c(OC)cc3c2c1 [PP2S, Methyl (S)-1-((3-butoxy-6,7-dimethoxyphenanthren-9-yl)methyl)-5-oxopyrrolidine-2-carboxylate]
M. tuberculosis H37Ra
  MIC: 0.4 µg/mL (≈ 0.859 µM)
M. tuberculosis H37Rv [1]; drug conc. 0.39
  RFU/200 μl (replicates1-3), single values: 54850 RFU/200 μl and 54820 RFU/200 μl and 52200 RFU/200 μl and 52110 RFU/200 μl and 58720 RFU/200 μl and 54260 RFU/200 μl and 54210 RFU/200 μl and 54470 RFU/200 μl and 54870 RFU/200 μl
  RFU/ml (×104): 27.3 RFU/ml (×104)
M. tuberculosis H37Rv [1]; [5]
  RFU/200 μl (average): 54343 RFU/200 μl and 54313 RFU/200 μl and 54847 RFU/200 μl
M. tuberculosis H37Rv [1]; drug conc. 0.78
  RFU/200 μl (replicates1-3), single values: 20330 RFU/200 μl and 20390 RFU/200 μl and 21500 RFU/200 μl and 21380 RFU/200 μl and 21640 RFU/200 μl and 20670 RFU/200 μl and 20960 RFU/200 μl and 20360 RFU/200 μl and 20370 RFU/200 μl
  RFU/ml (×104): 10.4 RFU/ml (×104)
M. tuberculosis H37Rv [1]; [6]
  RFU/200 μl (average): 21507 RFU/200 μl and 20663 RFU/200 μl and 20363 RFU/200 μl
M. tuberculosis H37Rv [1]; drug conc. 1.56
  RFU/200 μl (replicates1-3), single values: 8330 RFU/200 μl (2×) and 8470 RFU/200 μl and 8750 RFU/200 μl and 8670 RFU/200 μl and 8690 RFU/200 μl and 8240 RFU/200 μl and 8320 RFU/200 μl and 8390 RFU/200 μl
  RFU/ml (×104): 4.2 RFU/ml (×104)
M. tuberculosis H37Rv [1]; [7]
  RFU/200 μl (average): 8703 RFU/200 μl and 8297 RFU/200 μl and 8397 RFU/200 μl
M. tuberculosis H37Rv [1]; fluorescence-based assay
  concentration with significant antitubercular effect: 1.56 µg/mL and 0.78 µg/mL
XDR M. tuberculosis
  RFU/200 μl (replicates1-3), single values: 9970 RFU/200 μl and 10020 RFU/200 μl and 9360 RFU/200 μl and 9560 RFU/200 μl and 10400 RFU/200 μl and 10740 RFU/200 μl and 10810 RFU/200 μl and 10890 RFU/200 μl and 9990 RFU/200 μl and 20170 RFU/200 μl and 19980 RFU/200 μl and 20200 RFU/200 μl and 19820 RFU/200 μl and 20260 RFU/200 μl and 22530 RFU/200 μl and 22620 RFU/200 μl and 22580 RFU/200 μl and 20070 RFU/200 μl and 37150 RFU/200 μl and 37370 RFU/200 μl and 42810 RFU/200 μl and 39680 RFU/200 μl and 39960 RFU/200 μl and 41160 RFU/200 μl and 41210 RFU/200 μl and 41220 RFU/200 μl and 37280 RFU/200 μl
  concentration with significant antitubercular effect: 0.39 µg/mL
M. tuberculosis H37Rv [2]; drug conc. 0.39
  RLU/50ul (replicates1-3), single values: 1160 RLU/50ul and 1020 RLU/50ul and 2640 RLU/50ul and 2720 RLU/50ul and 2990 RLU/50ul and 1770 RLU/50ul and 1810 RLU/50ul and 1690 RLU/50ul and 1170 RLU/50ul
  RLU/ml (×100): 377.1 RLU/ml (×100)
M. tuberculosis H37Rv [2]; [5]
  RLU/50ul (average): 2783 RLU/50ul and 1757 RLU/50ul and 1117 RLU/50ul
M. tuberculosis H37Rv [2]; drug conc. 0.78
  RLU/50ul (replicates1-3), single values: 410 RLU/50ul and 270 RLU/50ul and 850 RLU/50ul (2×) and 870 RLU/50ul and 620 RLU/50ul and 650 RLU/50ul and 580 RLU/50ul and 390 RLU/50ul
  RLU/ml (×100): 122.0 RLU/ml (×100)
M. tuberculosis H37Rv [2]; [6]
  RLU/50ul (average): 857 RLU/50ul and 617 RLU/50ul and 357 RLU/50ul
M. tuberculosis H37Rv [2]; drug conc. 1.56
  RLU/50ul (replicates1-3), single values: 120 RLU/50ul and 160 RLU/50ul and 360 RLU/50ul and 370 RLU/50ul and 420 RLU/50ul and 110 RLU/50ul and 130 RLU/50ul (2×) and 170 RLU/50ul
  RLU/ml (×100): 43.8 RLU/ml (×100)
M. tuberculosis H37Rv [2]; [7]
  RLU/50ul (average): 383 RLU/50ul and 137 RLU/50ul (2×)
M. tuberculosis H37Rv [2]; luminescence-based assay
  concentration with significant antitubercular effect: 1.56 µg/mL and 0.78 µg/mL
M. tuberculosis H37Rv [3]; drug conc. 1.6
  CFU/ml (average): 26807 CFU/ml
  CFU/ml, single values: 23800 CFU/ml and 25500 CFU/ml and 31120 CFU/ml
  Intracellular M. tuberculosis, % (Drug Free = 100.0): 79.7%
M. tuberculosis H37Rv [3]; drug conc. 3.1
  CFU/ml (average): 22130 CFU/ml
  CFU/ml, single values: 17950 CFU/ml and 21400 CFU/ml and 27040 CFU/ml
  Intracellular M. tuberculosis, % (Drug Free = 100.0): 65.8%
M. tuberculosis H37Rv [3]; drug conc. 6.3
  CFU/ml (average): 12950 CFU/ml
  Intracellular M. tuberculosis, % (Drug Free = 100.0): 38.5%
M. tuberculosis H37Rv [3]; drug conc. 12.5
  CFU/ml (average): 7367 CFU/ml
  Intracellular M. tuberculosis, % (Drug Free = 100.0): 21.9%
M. tuberculosis H37Rv [3]; drug conc. 25
  CFU/ml (average): 640 CFU/ml
  Intracellular M. tuberculosis, % (Drug Free = 100.0): 1.9%
M. tuberculosis H37Rv [3]; H37Rv in Raw 264.7 cells, 3 days, concentration-dependent
  growth of M. tuberculosis in macrophages (CFU): significantly inhibited the growth
M. tuberculosis H37Rv [4]; Fig 4C, group dose 30
  Efficacy in BALB/C mouse model of pulmonary tuberculosis, values of mice 1-6: 3500000 and 3600000 and 2100000 and 2300000 and 3900000 and 3400000
M. tuberculosis H37Rv [4]; Fig 4C, group dose 30, 6 mice
  Efficacy in BALB/C mouse model of pulmonary tuberculosis, Average: 3133333
M. tuberculosis H37Rv [4]; Fig 4C, group dose 100, 6 mice
  Efficacy in BALB/C mouse model of pulmonary tuberculosis, Average: 550000
M. tuberculosis H37Rv [4]; mouse, in vivo, po
  bacterial burden in the lungs compared to control group: significantly reduced
In vitro; A549
  CC50: > 500 µg/mL
In vitro; HEK-293
  CC50: > 500 µg/mL
In vitro; SH-SY5Y
  CC50: > 500 µg/mL
In vitro; THP-1
  CC50: > 500 µg/mL
Intestinal microbiome
  beta set-significance analysis, pair-wise comparison of gut microbiome: not significant
  difference in phylum or class level taxa compared to drug-free group: did not significantly differ
  phylogenetic diversity compared to drug-free control group: no significant change
M. abscessus
  MIC: > 100 µg/mL
M. arupense
  MIC: > 100 µg/mL
M. aubagnense
  MIC: > 100 µg/mL
M. colombiense
  MIC: > 100 µg/mL
M. conceptionense
  MIC: > 100 µg/mL
M. gilvum
  MIC: > 100 µg/mL
M. intracellulare
  MIC: > 100 µg/mL
M. kyorinense
  MIC: > 100 µg/mL
M. marinum
  MIC: > 100 µg/mL
M. marseiliense
  MIC: > 100 µg/mL
M. neoaurum
  MIC: > 100 µg/mL
M. peregrinum
  MIC: > 100 µg/mL
M. phlei
  MIC: > 100 µg/mL
M. smegmatis
  MIC: > 100 µg/mL
M. szulgai
  MIC: > 100 µg/mL
M. xenopi
  MIC: > 100 µg/mL
